Series [1] in a line: MDCK permeability assay, wild type MDCK cells with no inhibitor (A→B). It counts as in vitro ADME, Canine. As to conditions: dog, no Pgp inhibitor, apical to basolateral. The method, then:
(§1) Compounds were tested for permeability in an MDCK permeability assay. This assay measures the ability of compounds to cross a layer of Madin-Darby Canine Kidney (MDCK) cells from the apical to basolateral side (A→B). This measurement is predictive of the ability of compounds to be absorbed in the gut following oral dosing, an essential characteristic of an orally administered small molecule integrin inhibitor drug.
(§2) The assay is run in two formats. One uses wild type MDCK cells with no inhibitor. This method works well in determining the passive permeability of compounds with low efflux by P-glyocprotein (Pgp), and was used to assess permeability of a Reference Compound having the chemical formula shown below.
(§3) Cell Culture and Maintenance: • Cell stock cultures (MDCK or MDCK MDR1) are maintained in MEM+10% FBS+1% NEAA, grown in 75 cm^2 tissue culture treated flasks and split (passed) 2 times weekly to maintain desired confluence. • For maintenance passage: trypsinized cells are routinely distributed into new flasks at a standard passage ratio of 1:20.
(§4) Seeding assay plates: MDCK assay plates are seeded with MDCK or MDCK MCR1 cells 3-4 days prior to running the assay. 24-well plates are seeded at a cell density of 0.88×10^5/well in a 400 μL apical chamber volume (2.2×10^5/mL) with a […] volume of growth medium to the 24-well basal chamber. […]

The test system of series [2] is Madin-Darby Canine Kidney (MDCK) cells. The series is described as above. It counts as in vitro ADME. As to conditions: no Pgp inhibitor, apical to basolateral. The method, then:
as §1, §2, §3, §4

SMILES strings stand for the structures.

Turning to `O=C(O)CN1CCC(C(=O)N2CCC(c3ccc4c(n3)NCCC4)CC2)CC1` [Reference Compound], in series [1], the apparent permeability from apical to basolateral (Papp A→B) at 90 min, 5 μM is below 0.23 ×10⁻⁶ cm/s. In addition, in series [2], the “MDCK (A −> B)” value is on record as “less than 0.23”.

Values taken from patent US11739087B2, “Inhibiting (α-v)(β-6) integrin” (Morphic Therapeutic, Inc., priority 2018, dated 2023).
